Experimental data: patent publication US8846705B2, “Diaminopyrimidines as P2X3 and P2X2/3 antagonists” (Roche Palo Alto LLC, priority 2004, dated 2014)
Counter-ions that a name gives are not always drawn.

How the values were obtained:
[1] = target: T1, rat P2X3 receptor (Rattus norvegicus, UniProt P49654); assay: cell-based
T1 sequence (P49654 1-397): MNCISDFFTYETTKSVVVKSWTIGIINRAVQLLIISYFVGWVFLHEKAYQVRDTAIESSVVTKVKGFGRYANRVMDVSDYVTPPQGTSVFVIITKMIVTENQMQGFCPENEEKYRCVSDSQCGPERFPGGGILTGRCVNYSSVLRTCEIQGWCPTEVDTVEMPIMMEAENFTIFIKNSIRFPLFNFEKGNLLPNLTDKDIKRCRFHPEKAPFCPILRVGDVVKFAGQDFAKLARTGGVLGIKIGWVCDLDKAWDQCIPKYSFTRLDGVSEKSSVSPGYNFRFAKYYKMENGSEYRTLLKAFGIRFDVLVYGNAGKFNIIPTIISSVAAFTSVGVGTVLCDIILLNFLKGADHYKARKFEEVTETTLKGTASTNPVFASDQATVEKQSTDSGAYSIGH
Procedure: P2X3/P2X2/3 FLIPR (Fluorometric Imaging Plate Reader) Assay
CHO-K1 cells were transfected with cloned rat P2X3 or human P2X2/3 receptor subunits and passaged in flasks. 18-24 hours before the FLIPR experiment, cells were released from their flasks, centrifuged, and resuspended in nutrient medium at 2.5×10^5 cells/ml. The cells were aliquoted into black-walled 96-well plates at a density of 50,000 cells/well and incubated overnight in 5% CO2 at 37° C. On the day of the experiment, cells were washed in FLIPR buffer (calcium- and magnesium-free Hank's balanced salt solution, 10 mM HEPES, 2 mM CaCl2, 2.5 mM probenecid; FB). […]
Test compounds (dissolved in DMSO at 10 mM and serially diluted with FB) or vehicle were added to each well (25 μl of a 4× solution) and allowed to equilibrate for 20 minutes at room temperature. The plates were then placed in the FLIPR and a baseline fluorescence measurement (excitation at 488 nm and emission at 510-570 nm) was obtained for 10 seconds before a 100 μl/well agonist or vehicle addition. […] Fluorescence was measured for an additional 2 minutes at 1 second intervals after agonist addition. A final addition of ionomycin (5 μM, final concentration) was made to each well of the FLIPR test plate to establish cell viability and maximum fluorescence of dye-bound cytosolic calcium. […]

| SMILES | melting point | IC50 [1] |
| --- | --- | --- |
| Cc1cn(C)c2cc(C(F)(F)F)c(Oc3cnc(N)nc3N)cc12 (as salt: hydrochloride) [Example 63, 5-(1,3-Dimethyl-6-trifluoromethyl-1H-indol-5-yloxy)-pyrimidine-2,4-diamine] | 256 °C | – |
| Cc1nc2c(C)cc(Oc3cnc(N)nc3N)c(C(C)C)c2o1 (as salt: hydrochloride) [Example 66, 5-(7-Isopropyl-2,4-dimethyl-benzooxazol-6-yloxy)-pyrimidine-2,4-diamine] | > 300 °C | – |
| CNC(=O)OC[C@@H](C)Nc1ncc(Oc2cc(Cl)c(OC)cc2C(C)C)c(N)n1 (stereo in doubt) [Example 7, Methyl-carbamic acid 2-[4-amino-5-(5-chloro-2-isopropyl-4-methoxy-phenoxy)-pyrimidin-2-ylamino]-propyl ester] | 63.5 to 69.4 °C | – |
| COc1cc(C)c(Cc2cnc(N)nc2N)cc1OC [5-(4,5-Dimethoxy-2-methyl-benzyl)-pyrimidine-2,4-diamine] | – | > 10000 nM |
| CCc1c(Oc2cnc(N)nc2N)cc(C)c2sccc12 [Example 62, 5-(4-Ethyl-7-methyl-benzo[b]thiophen-5-yloxy)-pyrimidine-2,4-diamine] | 181 °C | – |

Results, then the molecule that gave them:

| melting point | IC50 [1] | SMILES |
| --- | --- | --- |
| 111.4 to 116.9 °C | – | COc1cc(C(C)C)c(Oc2cnc(N[C@H](C)CO)nc2N)cc1Cl (as salt: hydrochloride) [Compound 120, 2-[4-Amino-5-(5-chloro-2-isopropyl-4-methoxy-phenoxy)-pyrimidin-2-ylamino]-(R)-propan-1-ol] |
| 135 to 138.5 °C | – | COc1cc(C(C)C)c(Oc2cnc(N)nc2N)cc1-c1ncon1 (as salt: trifluoroacetic acid salt) [Example 57, 5-(2-Isopropyl-4-methoxy-5-[1,2,4]oxadiazol-3-yl-phenoxy)-pyrimidine-2,4-diamine] |
| – | ~5.01 nM | CC(C)c1cc(O)c(I)cc1Oc1cnc(N)nc1N [4-(2,4-Diamino-pyrimidin-5-yloxy)-2-iodo-5-isopropyl-phenol] |
| 167.3 to 170.1 °C | – | CC(C)c1cc2c(cc1Oc1cnc(N)nc1N)OCCN2C [Example 58, 5-(6-Isopropyl-4-methyl-3,4-dihydro-2H-benzo[1,4]oxazin-7-yloxy)-pyrimidine-2,4-diamine] |
| 253.7 to 254.6 °C | – | COc1cc(C(C)C)c(Oc2cnc(N)nc2N)cc1-c1ccco1 [Example 59, 5-(5-Furan-2-yl-2-isopropyl-4-methoxy-phenoxy)-pyrimidine-2,4-diamine] |
| 115 to 117 °C | – | COc1cc(C(C)C)c(Oc2cnc(N)nc2N)cc1N1CCN(S(C)(=O)=O)CC1 [Example 61, 5-[2-Isopropyl-5-(4-methanesulfonyl-piperazin-1-yl)-4-methoxy-phenoxy]-pyrimidine-2,4-diamine] |
| > 300 °C | – | Cc1c(C(=O)O)[nH]c2cc(Oc3cnc(N)nc3N)c(C(C)C)cc12 [Example 64, 6-(2,4-Diamino-pyrimidin-5-yloxy)-5-isopropyl-3-methyl-1H-indole-2-carboxylic acid] |
